Data published in US12465603B2, “Phthalazinone based modulators for the treatment of disease” (Soley Therapeutics, Inc., priority 2022, dated 2025).
pIC50: −log10 of the molar value.

How the values were obtained:
[1] = test system: A2058 (ATCC, CRL-11147) cells; assay: Cell viability assay (Cell Titre Glo, 72 hours) in A2058 cells; format: cell-based; conditions: Homo sapiens
Experimental: (§1) Example 31: Cell Viability Assays
(§2) Phthalazinone based modulators as described herein were dispensed into 384 well CulturPlates™ (PerkinElmer) using Echo 555 acoustic dispensing in 10-point dose response curves at a final top concentration of 30 μM following a 1 in 3 dilution series. A2058 (ATCC, CRL-11147) or PA1 (ECACC, 90013101) cells were added directly to a compound at a density of 5000 cells per well in a final volume of 50 μL and incubated for 72 hours at 37° C., 5% CO2. Viability was assessed using Cell Titre Glo® (Promega) according to the manufacturer's instructions (25 μL per well) and IC50 curves were generated for each inhibitor using IDBS ActivityBase data analysis software.

[2] = test system: PA1 (ECACC, 90013101) cells; assay: Cell viability assay (Cell Titre Glo, 72 hours) in PA1 cells; format: cell-based; conditions: Homo sapiens, PA-1
Experimental: as §1, §2

Row | SMILES | pIC50 [1] | pIC50 [2]
1 | Cn1nc(C(=O)N2CCN(c3cccc4c3OCC4)CC2)c2ccccc2c1=O [Compound 52] | ≥ 6.00 | ≥ 6.00
2 | Cc1nc2c(N3CCN(C(=O)c4nn(C)c(=O)c5ccccc45)CC3)cccc2o1 [Compound 53] | 5.00 to 6.00 | 5.00 to 6.00
3 | Cn1nc(C(=O)N2CCN(c3cc(F)cc(F)c3)CC2)c2ccccc2c1=O [Compound 54] | ≥ 6.00 | ≥ 6.00
4 | Cc1cc(N2CCN(C(=O)c3nn(C)c(=O)c4ccccc34)CC2)ccc1F [Compound 55] | < 4.70 | 4.70 to 5.00
5 | COc1cc(F)c(F)cc1N1CCN(C(=O)c2nn(C)c(=O)c3ccccc23)CC1 [Compound 56] | ≥ 6.00 | ≥ 6.00
6 | COc1cc(Cl)ccc1N1CCN(C(=O)c2nn(C)c(=O)c3ccccc23)CC1 [Compound 57] | 5.00 to 6.00 | ≥ 6.00
7 | CCOc1cc(F)ccc1N1CCN(C(=O)c2nn(C)c(=O)c3ccccc23)CC1 [Compound 58] | 5.00 to 6.00 | ≥ 6.00
8 | CC(C)Oc1cc(F)ccc1N1CCN(C(=O)c2nn(C)c(=O)c3ccccc23)CC1 [Compound 59] | 5.00 to 6.00 | 5.00 to 6.00
9 | Cn1nc(C(=O)N2CCN(c3ccc(F)cc3C3CC3)CC2)c2ccccc2c1=O [Compound 60] | ≥ 6.00 | ≥ 6.00
10 | Cn1nc(C(=O)N2CCN(c3cc(F)cc(C#N)c3)CC2)c2ccccc2c1=O [Compound 61, 3-fluoro-5-(4-(3-methyl-4-oxo-3,4-dihydrophthalazine-1-carbonyl)piperazin-1-yl)benzonitrile] | ≥ 6.00 | ≥ 6.00
11 | Cn1nc(C(=O)N2CCN(c3cc(C#N)ccc3C3CC3)CC2)c2ccccc2c1=O [Compound 62] | ≥ 6.00 | ≥ 6.00
12 | Cn1nc(C(=O)N2CCN(c3cncc(C(F)F)c3)CC2)c2ccccc2c1=O [Compound 63] | < 4.70 | < 4.70
13 | Cc1cc(C)nc(N2CCN(C(=O)c3nn(C)c(=O)c4ccccc34)CC2)n1 [Compound 64] | < 4.70 | 5.00 to 6.00
14 | COCc1ccnc(N2CCN(C(=O)c3nn(C)c(=O)c4ccccc34)CC2)n1 [Compound 65] | < 4.70 | < 4.70
15 | CCc1ccncc1N1CCN(C(=O)c2nn(C)c(=O)c3ccccc23)CC1 [Compound 66] | 5.00 to 6.00 | ≥ 6.00
16 | Cc1ccc(C#N)cc1N1CCN(C(=O)c2nn(C)c(=O)c3ccccc23)CC1 [Compound 67] | ≥ 6.00 | ≥ 6.00
17 | Cc1cc(C#N)cc(N2CCN(C(=O)c3nn(C)c(=O)c4ccccc34)CC2)c1 [Compound 68] | ≥ 6.00 | ≥ 6.00
18 | Cn1nc(C(=O)N2CCN(c3cccc(S(C)(=O)=O)c3)CC2)c2ccccc2c1=O [Compound 69] | 5.00 to 6.00 | 5.00 to 6.00
19 | COc1ccc(C#N)cc1N1CCN(C(=O)c2nn(C)c(=O)c3ccccc23)CC1 [Compound 70] | ≥ 6.00 | ≥ 6.00
20 | Cn1nc(C(=O)N2CCN(c3ccncc3C3CC3)CC2)c2ccccc2c1=O [Compound 71] | ≥ 6.00 | ≥ 6.00
21 | COc1ccnc(N2CCN(C(=O)c3nn(C)c(=O)c4ccccc34)CC2)n1 [Compound 72] | 5.00 to 6.00 | 5.00 to 6.00
22 | Cc1cncc(N2CCN(C(=O)c3nn(C)c(=O)c4ccccc34)CC2)c1 [Compound 73] | 5.00 to 6.00 | 5.00 to 6.00

Row | SMILES | pIC50 [1] | pIC50 [2]
23 | Cc1cc(N2CCN(C(=O)c3nn(C)c(=O)c4ccccc34)CC2)ccn1 [Compound 74] | < 4.70 | < 4.70
24 | COc1ncc(F)cc1N1CCN(C(=O)c2nn(C)c(=O)c3ccccc23)CC1 [Compound 75] | ≥ 6.00 | ≥ 6.00
25 | Cn1nc(C(=O)N2CCN(c3ccnc(C4CC4)c3)CC2)c2ccccc2c1=O [Compound 76] | 4.70 to 5.00 | 5.00 to 6.00
26 | COc1ncc(C)cc1N1CCN(C(=O)c2nn(C)c(=O)c3ccccc23)CC1 [Compound 77] | 5.00 to 6.00 | 5.00 to 6.00
27 | COc1cnc(C)cc1N1CCN(C(=O)c2nn(C)c(=O)c3ccccc23)CC1 [Compound 78] | 5.00 to 6.00 | 5.00 to 6.00
28 | CN1CCc2cccc(N3CCN(C(=O)c4nn(C)c(=O)c5ccccc45)CC3)c21 [Compound 79] | 4.70 to 5.00 | 4.70 to 5.00
29 | Cn1nc(C(=O)N2CCN(c3cccc4c3OC(F)(F)O4)CC2)c2ccccc2c1=O [Compound 80] | ≥ 6.00 | ≥ 6.00
30 | CCn1nc(C(=O)N2CCN(c3cccc(C(F)(F)F)c3)CC2)c2ccccc2c1=O [Compound 81, 2-ethyl-4-(4-(3-(trifluoromethyl)phenyl)piperazine-1-carbonyl)phthalazin-1(2H)-one] | 5.00 to 6.00 | ≥ 6.00
31 | CCn1nc(C(=O)N2CCN(c3cccc(F)n3)CC2)c2ccccc2c1=O [Compound 82] | < 4.70 | 4.70 to 5.00
32 | CCn1nc(C(=O)N2CCN(c3cncnc3OC)CC2)c2ccccc2c1=O [Compound 83] | 5.00 to 6.00 | ≥ 6.00
33 | CCn1nc(C(=O)N2CCN(c3cccc(OC)n3)CC2)c2ccccc2c1=O [Compound 84] | ≥ 6.00 | ≥ 6.00
34 | CCn1nc(C(=O)N2CCN(c3cc(OC)ccn3)CC2)c2ccccc2c1=O [Compound 85] | 5.00 to 6.00 | 5.00 to 6.00
35 | CCn1nc(C(=O)N2CCN(c3ncc(C#N)cc3F)CC2)c2ccccc2c1=O [Compound 86] | < 4.70 | < 4.70
36 | CCn1nc(C(=O)N2CCN(c3ncc(F)cc3C)CC2)c2ccccc2c1=O [Compound 87] | < 4.70 | < 4.70
37 | CCn1nc(C(=O)N2CCN(c3ncc(F)cc3C3CC3)CC2)c2ccccc2c1=O [Compound 88] | ≥ 6.00 | ≥ 6.00
38 | CCn1nc(C(=O)N2CCN(c3cc(OC)c(Br)cn3)CC2)c2ccccc2c1=O [Compound 89] | < 4.70 | < 4.70
39 | CCn1nc(C(=O)N2CCN(c3cccc4c3oc(=O)n4C)CC2)c2ccccc2c1=O [Compound 90] | < 4.70 | < 4.70
40 | CCn1nc(C(=O)N2CCN(c3ncc(C#N)cc3C)CC2)c2ccccc2c1=O [Compound 91] | < 4.70 | < 4.70
41 | CCn1nc(C(=O)N2CCN(c3ccc(F)c4ccoc34)CC2)c2ccccc2c1=O [Compound 92] | ≥ 6.00 | ≥ 6.00
42 | CCn1nc(C(=O)N2CCN(c3ncc(C#N)cc3OC)CC2)c2ccccc2c1=O [Compound 93] | 5.00 to 6.00 | 5.00 to 6.00
43 | CCn1nc(C(=O)N2CCN(c3nnccc3OC)CC2)c2ccccc2c1=O [Compound 94] | 4.70 to 5.00 | 5.00 to 6.00
44 | CCn1nc(C(=O)N2CCN(c3ccnc4ccoc34)CC2)c2ccccc2c1=O [Compound 95] | ≥ 6.00 | ≥ 6.00

Row | SMILES | pIC50 [1] | pIC50 [2]
45 | CCn1nc(C(=O)N2CCN(c3cccc4c3OC(C)(C)C4)CC2)c2ccccc2c1=O [Compound 96] | 5.00 to 6.00 | ≥ 6.00
46 | CCn1nc(C(=O)N2CCN(c3cccc4oc(=O)[nH]c34)CC2)c2ccccc2c1=O [Compound 97] | < 4.70 | 4.70 to 5.00
47 | CCn1nc(C(=O)N2CCN(c3ncncc3OC)CC2)c2ccccc2c1=O [Compound 98] | 5.00 to 6.00 | 5.00 to 6.00
48 | CCn1nc(C(=O)N2CCN(c3nccnc3OC)CC2)c2ccccc2c1=O [Compound 99] | 5.00 to 6.00 | 5.00 to 6.00
49 | CCn1nc(C(=O)N2CCN(c3ccccc3F)CC2)c2ccccc2c1=O [Compound 100] | 5.00 to 6.00 | ≥ 6.00
50 | CCn1nc(C(=O)N2CCN(c3ccccc3OC)CC2)c2ccccc2c1=O [Compound 101] | ≥ 6.00 | ≥ 6.00
51 | CCn1nc(C(=O)N2CCN(c3ccccc3C)CC2)c2ccccc2c1=O [Compound 102] | ≥ 6.00 | ≥ 6.00
52 | CCn1nc(C(=O)N2CCN(c3ccccc3C3CC3)CC2)c2ccccc2c1=O [Compound 103] | ≥ 6.00 | ≥ 6.00
53 | CCn1nc(C(=O)N2CCN(c3ccc(C(F)(F)F)cc3C)CC2)c2ccccc2c1=O [Compound 104] | 5.00 to 6.00 | 5.00 to 6.00
54 | CCn1nc(C(=O)N2CCN(c3ccccc3Cl)CC2)c2ccccc2c1=O [Compound 105] | ≥ 6.00 | ≥ 6.00
55 | CCn1nc(C(=O)N2CCN(c3ncccc3C)CC2)c2ccccc2c1=O [Compound 106] | 5.00 to 6.00 | 5.00 to 6.00
56 | CCn1nc(C(=O)N2CCN(c3ncccc3F)CC2)c2ccccc2c1=O [Compound 107] | < 4.70 | < 4.70
57 | CCn1nc(C(=O)N2CCN(c3ncccc3C3CC3)CC2)c2ccccc2c1=O [Compound 108] | ≥ 6.00 | ≥ 6.00
58 | CCn1nc(C(=O)N2CCN(c3cc(F)ccn3)CC2)c2ccccc2c1=O [Compound 109] | 5.00 to 6.00 | 5.00 to 6.00
59 | CCn1nc(C(=O)N2CCN(c3cc(C)ccn3)CC2)c2ccccc2c1=O [Compound 110] | 5.00 to 6.00 | 5.00 to 6.00
60 | CCn1nc(C(=O)N2CCN(c3ccc(OC)nn3)CC2)c2ccccc2c1=O [Compound 111] | < 4.70 | < 4.70
61 | CCn1nc(C(=O)N2CCN(c3cc(OC)cnn3)CC2)c2ccccc2c1=O [Compound 112] | < 4.70 | < 4.70
62 | CCn1nc(C(=O)N2CCN(c3ncncc3C)CC2)c2ccccc2c1=O [Compound 113] | < 4.70 | < 4.70
63 | CCn1nc(C(=O)N2CCN(c3ncc(F)cc3OC)CC2)c2ccccc2c1=O [Compound 114] | 5.00 to 6.00 | ≥ 6.00
64 | CCn1nc(C(=O)N2CCN(c3ccncc3C3CC3)CC2)c2ccccc2c1=O [Compound 115] | ≥ 6.00 | ≥ 6.00
